# Assay results taken from paper PMC10945559, “Forgotten Natural Products: Semisynthetic Development of Blasticidin S As an Antibiotic Lead” (ACS Medicinal Chemistry Letters, 2024).
# Read-outs that look alike come from different tables or passages of the source.
# Key:
# [1] = test system: methicillin-resistant S. aureus (MRSA) ATCC 43300; test: Broth microdilution antibacterial assay; assay type: cell-based, Staphylococcus aureus; conditions: for Selectivity index (CC50/IC50): MRC-5 CC50 / MRSA IC50; for IC50 / MIC: Staphylococcus aureus; for IC50: average of two biological replicates ± S.D., read-out: IC50
# Procedure: (§1) Antibacterial Assay Procedure
# (§2) Broth Microdilution Assays
# (§3) Media and solutions were autoclaved or sterile filtered prior to use and manipulations were carried out in a laminar flow hood. Antibacterial testing was performed in polypropylene 96 -well flat bottom plates. The minimal inhibitory concentration of blasticidin S ( 1) hydrochloride, P10 (2), and derivatives 15–22 were assessed against Staphylococcus aureus ΔNorA, S. aureus 8810, methicillin-resistant S. aureus (MRSA) ATCC 43300, Enterococcus faecalis ATCC 29212, vancomycin-resistant Enterococcus, Klebsiella pneumoniae ATCC 29665, Pseudomonas aeruginosa, and Acinetobacter baumannii ATCC 17978 using serial dilutions. Doxycycline (Gold Bio) as a positive control and the vehicle as a negative control. Stock solutions of each compound were prepared at 5.12 mg/mL in 50% DMSO/water and serially diluted in 50% DMSO/water to create master plates. From the master plates, 10 μL of each dilution was applied to test plates using a Bravo automated liquid transfer system (Agilent). Bacteria previously grown overnight (37 °C, 120 – 200 RPM), in LB broth were diluted to an OD600 of 0.0 5 in cation-adjusted Mueller-Hinton broth, grown to an OD600 of ~0.5, and diluted to an OD600 of 0.004 in cation-adjusted Mueller-Hinton broth. These diluted cultures were applied to the test plates (190 μL per test well) resulting in final concentrations of the test compounds of 256–2 μg/mL. Growth controls (wells with inoculated media but no vehicle or test compounds) were included to assess any potential toxicity from the vehicle. The plates were incubated at 37 °C for 16–18 h, except for VRE and E. faecalis, which were incubated at 37 °C for 24 h. Inhibition was determined by measuring the optical density at 600 nm (OD600) with a Cytation 3 plate reader (BioTek). The optical density measurements were normalized to the positive and negative controls and the vehicle and growth controls were compared and found to be indistinguishable, indicating no toxicity from the vehicle used. The MIC was the lowest concentration that inhibited >90% of growth. Two biological replicates were performed in duplicate. MIC values are reported […]
# (§4) as a range from biological replicates. Inhibition curves were generated using Prism (GraphPad).
# (§5) The IC50 values reported in Table 2 are the average of the two biological replicates ± standard […]
# (§6) Cytotoxicity Assay Procedure
# (§7) Human lung fibroblast cells, MRC -5 (CCL-171), were cultured at 37℃ with 5% CO2 and were plated at 5000 cells/well in a 96 -well plate. Compounds 1, 2, and 15-22 were initially prepared at concentrations of 5.12 mg/mL in a vehicle of 50% DMSO. Dilutions of the compounds (4 – 512 μg/mL) were then prepared in growth medium containing Dulbecco’s modified Eagle’s medium (DMEM) with high glucose, L -glutamine, and sodium pyruvate supplemented with 10% fetal bovine serum (FBS), 1% non -essential amino acids, and 0.1% gentamicin sulfate, and 25mM HEPES. The vehicle (50% DMSO) was also prepared via the sa me dilution series to serve as a control. Growth media was removed from the cells and replaced with the same volume of each compound dilution. Cells were incubated for 24 h , after which CellTiter 96® AQueous One Solution Reagent was added to each well as recommended by the manufacturer’s protocol (Promega CellTiter 96 AQueous One Solution Cell Proliferation Assay) and further incubated for 4 h. After incubation, absorbance was measured at 490 nm on an Infinite M plex multimode microplate reader with i -control Tecan software. Viability was calculated by subtracting media only absorbance values and normalizing to the vehicle control at each concentration. The presented data is one assay performed in triplicate that is representative of multiple trials. Data for the 256 and 512 μg/mL concentrations were removed from analysis due to vehicle toxicity […]
# (§8) CC50 concentrations were determined via the ED50 Plus v1.0 software (https://archive.org/details/ed50v10_zip).
# [2] = test system: S. aureus 8810; test: Broth microdilution antibacterial assay; assay type: cell-based, Staphylococcus aureus; conditions: for Selectivity index (CC50/IC50): MRC-5 CC50 / S. aureus IC50; for IC50 / MIC: Staphylococcus aureus, 8810; for IC50: average of two biological replicates ± S.D., read-out: IC50
# Procedure: as §1, §2, §3, §4, §5, §6, §7, §8
# [3] = in vitro; assay type: cell-based, human; conditions: human; MRC-5 (lung fibroblast); 24 h; one biological replicate (n = 3); read-out: CC50 for human cells
# Procedure: as §4, §5, §6, §7, §8
# (§9) Figure S41. The effect of compounds on cell viability. The lines represent non -linear regression curves, and error bars represent means ± […]
# (§10) SD (n=3). […]
# [4] = test system: MRC-5 lung fibroblast cells; test: in vitro; assay type: cell-based, human; conditions: average of SI (CC50/IC50) over the bacteria tested
# Procedure: as §4, §5, §6, §7, §8, §9, §10
# [5] = test system: vancomycin-resistant Enterococcus (VRE); test: Broth microdilution antibacterial assay; assay type: cell-based; conditions: for MIC / IC50: Enterococcus, VRE; for IC50: average of two biological replicates ± S.D., read-out: IC50; for Selectivity index (CC50/IC50): MRC-5 CC50 / VRE IC50
# Procedure: as §1, §2, §3, §4, §5, §6, §7, §8
# [6] = test system: Pseudomonas aeruginosa; test: Broth microdilution antibacterial assay; assay type: cell-based; conditions: for Selectivity index (CC50/IC50): MRC-5 CC50 / P. aeruginosa IC50; for IC50 / MIC: Pseudomonas aeruginosa, P. aeruginosa; for IC50: average of two biological replicates ± S.D., read-out: IC50; for MIC: lowest concentration inhibiting >90% of growth, range from biological replicates, read-out: MIC
# Procedure: as §1, §2, §3, §4, §5, §6, §7, §8
# [7] = test system: Klebsiella pneumoniae ATCC 29665; test: Broth microdilution antibacterial assay; assay type: cell-based; conditions: for IC50 / MIC: Klebsiella pneumoniae, ATCC29665, K. pneumoniae; for IC50: average of two biological replicates ± S.D., read-out: IC50; for MIC: lowest concentration inhibiting >90% of growth, range from biological replicates, read-out: MIC; for Selectivity index (CC50/IC50): MRC-5 CC50 / K. pneumoniae IC50
# Procedure: as §1, §2, §3, §4, §5, §6, §7, §8
# [8] = test system: Enterococcus faecalis ATCC 29212; test: Broth microdilution antibacterial assay; assay type: cell-based; conditions: for MIC / IC50: Enterococcus faecalis, ATCC29212; for IC50: average of two biological replicates ± S.D. (18: one biological replicate), read-out: IC50; for Selectivity index (CC50/IC50): MRC-5 CC50 / E. faecalis IC50
# Procedure: as §1, §2, §3, §4, §5, §6, §7, §8
# [9] = test system: Staphylococcus aureus ΔNorA; test: Broth microdilution antibacterial assay; assay type: cell-based; conditions: for Selectivity index (CC50/IC50): MRC-5 CC50 / S. aureus ΔNorA IC50; for IC50 / MIC: Staphylococcus aureus
# Procedure: as §1, §2, §3, §4, §5, §6, §7, §8
# [10] = test system: Acinetobacter baumannii ATCC 17978; test: Broth microdilution antibacterial assay; assay type: cell-based; conditions: for IC50 / MIC: Acinetobacter baumannii, ATCC17978, A. baumannii; for IC50: average of two biological replicates ± S.D., read-out: IC50; for MIC: lowest concentration inhibiting >90% of growth, range from biological replicates, read-out: MIC; for Selectivity index (CC50/IC50): MRC-5 CC50 / A. baumannii IC50
# Procedure: as §1, §2, §3, §4, §5, §6, §7, §8
# [11] = MRSA, lowest concentration inhibiting >90% of growth, range from biological replicates, read-out: MIC
# [12] = average MIC, Table S3, read-out: Average Activity against MRSA
# [13] = S. aureus, lowest concentration inhibiting >90% of growth, range from biological replicates, read-out: MIC
# [14] = average MIC, Table S3, read-out: Average Activity against S. aureus
# [15] = average MIC, Table S3, read-out: Average Activity against VRE
# [16] = 24 h, lowest concentration inhibiting >90% of growth, range from biological replicates, read-out: MIC
# [17] = E. faecalis, 24 h, lowest concentration inhibiting >90% of growth, range from biological replicates, read-out: MIC
# [18] = average MIC, Table S3, read-out: Average Activity against E. faecalis
SMILES,Selectivity index (CC50/IC50) [1],IC50 ([1]; MRSA),"MIC [1, 11]","MIC [1, 12]",Selectivity index (CC50/IC50) [2],IC50 ([2]; S. aureus),"MIC [2, 13]","MIC [2, 14]",CC50 at 24 h [3],"MIC [5, 15]","MIC [5, 16]",IC50 [5],Selectivity index (CC50/IC50) [5],Selectivity index (CC50/IC50) [6],IC50 [6],MIC [6],IC50 [7],MIC [7],Selectivity index (CC50/IC50) [7],"MIC [8, 17]",other results
"CN(CC[C@H](N)CC(=O)N[C@H]1C=C[C@H](n2ccc(N)nc2=O)O[C@@H]1C(N)=O)C(=N)N [Compound 2, P10]",0.8,7 ± 1 µg/mL,32 µg/mL,32 µg/mL,1.3,4.7 ± 1 µg/mL,32 µg/mL,32 µg/mL,5.9 µg/mL,64 µg/mL,64 µg/mL,15 ± 8.6 µg/mL,0.4,0.4,14.6 ± 1.5 µg/mL,64 µg/mL,7.6 ± 1.3 µg/mL,32 µg/mL,0.8,16 to 32 µg/mL,"average selectivity index [4]: 0.8; IC50 ([8]; E. faecalis): 5.1 ± 4.3 µg/mL; MIC [8, 18]: 16 µg/mL; Selectivity index (CC50/IC50) [8]: 1.2; Selectivity index (CC50/IC50) [9]: 0.4; IC50 [9]: 14 ± 0.3 µg/mL; MIC [9]: 64 to 128 µg/mL; IC50 [10]: 4.5 ± 0.4 µg/mL; MIC [10]: 16 µg/mL; Selectivity index (CC50/IC50) [10]: 1.3"
C#CCCNC(=O)[C@H]1O[C@@H](n2ccc(N)nc2=O)C=C[C@@H]1NC(=O)C[C@@H](N)CCN(C)C(=N)N [Compound 20],9.1,7.2 ± 2.3 µg/mL,32 µg/mL,32 µg/mL,26,2.5 ± 0.2 µg/mL,16 µg/mL,16 µg/mL,65.9 µg/mL,64 µg/mL,64 µg/mL,22.1 ± 12 µg/mL,3.0,3.3,20.2 ± 1.3 µg/mL,64 µg/mL,30.7 ± 5.3 µg/mL,128 µg/mL,2.2,16 to 32 µg/mL,"IC50 ([8]; E. faecalis): 11.1 ± 4.1 µg/mL; MIC [8, 18]: 16 µg/mL; Selectivity index (CC50/IC50) [8]: 5.9; Selectivity index (CC50/IC50) [9]: 4.3; IC50 [9]: 15.2 ± 2.1 µg/mL; MIC [9]: 64 µg/mL; IC50 [10]: 24.3 ± 3.2 µg/mL; MIC [10]: 128 µg/mL; Selectivity index (CC50/IC50) [10]: 2.7"
